Patent publication US20110028518A1, “DEXLANSOPRAZOLE PROCESS AND POLYMORPHS” (DR. REDDY'S LABORATORIES LTD., priority 2008, published 2011)

Experiments:
(H+—K+)-ATPase = (H+—K+)-ATPase (Homo sapiens, UniProt P20648); conditions: Biochemical Pharmacology (1991), 42(10), 1875-8; cited from earlier work
[1] = Storage stability studies (Example 28): water content and HPLC impurities; format: physicochemical
Description: A high performance liquid chromatography (HPLC) method for measuring the chemical purity of dexlansoprazole or a compound of formula (VII) of the present application, and for determination of their corresponding impurities, involves the use of a YMC-PAK ODS-A 100×4.6, 3 μm or equivalent column.
A high performance liquid chromatography (HPLC) method for measuring the impurity at RRT 1.98, and having a mass number of m/z 467, in the present application involves the use of a YMC-PRO C-18 100×4.6 mm, 3 microns or equivalent column.
Dexlansoprazole obtained from Example 23 was tested for its storage stability. The samples were stored in a tied clear polyethylene bag, placed in a black polyethylene bag filled with N2 along with a silica desiccant pouch, and the black bag was placed into a triple laminated bag along with silica gel pouch and then sealed and stored in HDPE drum packaging under the conditions noted in the following results tables. Chemical purity of the samples was measured by HPLC before and after storage.
The following impurities were monitored during stability testing:
2-mercaptobenzimidazole (designated “2-MB) having the following structure;
a “nitrosulphoxide” impurity (designated “NS”) having the following structure;
a “sulfide” impurity, having a chemical name 2-[[{4-(2,2,2-trifluoroethoxy)-3-methylpyridine-2-yl}methyl]thio]-1H-benzimidazole and the following structure;
a “sulfone” impurity, having a chemical name 2-[[{4-(2,2,2-trifluoroethoxy)-3-methylpyridine-2-yl}methyl]sulfonyl]-1H-benzimidazole and the following structure;
and an unidentified impurity at RRT (relative retention time) 1.98. Also given in the following tables are the concentration of the highest unidentified impurity as measured by HPLC, total impurities, and the water content. All results in the tables given below are expressed on a weight percent basis, and “ND” means not detected.

[2] = Bulk density (USP Test 616, method 2); format: physicochemical
Description: In an embodiment, the present application provides dexlansoprazole having bulk densities less than about 1 g/ml. Bulk density has been determined using Test 616 “Bulk Density and Tapped Density,” in United States Pharmacopoeia 29, United States Pharmacopeial Convention, Inc., Rockville, Md., 2005, in method 2.

[3] = Particle size distribution; format: physicochemical
Description: “10th volume percentile” as used herein, unless otherwise defined refers to the size of particles, below which 10% of the measured sample volume lies; “50th volume percentile” as used herein, unless otherwise defined refers to the size of particles, below which 50% of the measured samples volume lies, and “90th volume percentile” as used herein, unless otherwise defined refers to the size of particles, below which 90% of the measured samples volume lies.
Particle size distributions of dexlansoprazole particles may be measured with a Jayant Test Siever (e.g., using mesh number 60, mesh opening 250 μm). Particle size distributions of dexlansoprazole particles may also be measured using light scattering equipment such as a Malvern Master Sizer 2000 (helium neon laser source, dexlansoprazole suspended in light liquid paraffin, size range: 0.02 μm to 2000 μm). Other techniques are also useful.

[4] = Specific surface area by the BET method; format: physicochemical
Description: The specific surface area of dexlansoprazole of the present application has been measured by a BET (Brunauer, Emmett and Teller) specific surface method using a Micromeritics Gemini surface area analyzer, model 2365. Samples for analysis were degassed at 40° C. under reduced pressure and the determination of the adsorption of nitrogen gas at 77° K was measured for relative pressure in the range of 0.05-0.3.

[5] = At 25 ± 2° C. and 60 ± 5% Relative Humidity, 1 month
[6] = At 25 ± 2° C. and 60 ± 5% Relative Humidity, 2 months
[7] = At 25 ± 2° C. and 60 ± 5% Relative Humidity, 3 months
[8] = At 25 ± 2° C. and 60 ± 5% Relative Humidity, 15 days
[9] = At 25 ± 2° C. and 60 ± 5% Relative Humidity, 45 days
[10] = At 25 ± 2° C. and 60 ± 5% Relative Humidity, Initial
[11] = storage at 2-8° C. and at 25 ± 2° C./60 ± 5% RH, up to 3 months

(H+—K+)-ATPase, sequence (P20648 whole entry): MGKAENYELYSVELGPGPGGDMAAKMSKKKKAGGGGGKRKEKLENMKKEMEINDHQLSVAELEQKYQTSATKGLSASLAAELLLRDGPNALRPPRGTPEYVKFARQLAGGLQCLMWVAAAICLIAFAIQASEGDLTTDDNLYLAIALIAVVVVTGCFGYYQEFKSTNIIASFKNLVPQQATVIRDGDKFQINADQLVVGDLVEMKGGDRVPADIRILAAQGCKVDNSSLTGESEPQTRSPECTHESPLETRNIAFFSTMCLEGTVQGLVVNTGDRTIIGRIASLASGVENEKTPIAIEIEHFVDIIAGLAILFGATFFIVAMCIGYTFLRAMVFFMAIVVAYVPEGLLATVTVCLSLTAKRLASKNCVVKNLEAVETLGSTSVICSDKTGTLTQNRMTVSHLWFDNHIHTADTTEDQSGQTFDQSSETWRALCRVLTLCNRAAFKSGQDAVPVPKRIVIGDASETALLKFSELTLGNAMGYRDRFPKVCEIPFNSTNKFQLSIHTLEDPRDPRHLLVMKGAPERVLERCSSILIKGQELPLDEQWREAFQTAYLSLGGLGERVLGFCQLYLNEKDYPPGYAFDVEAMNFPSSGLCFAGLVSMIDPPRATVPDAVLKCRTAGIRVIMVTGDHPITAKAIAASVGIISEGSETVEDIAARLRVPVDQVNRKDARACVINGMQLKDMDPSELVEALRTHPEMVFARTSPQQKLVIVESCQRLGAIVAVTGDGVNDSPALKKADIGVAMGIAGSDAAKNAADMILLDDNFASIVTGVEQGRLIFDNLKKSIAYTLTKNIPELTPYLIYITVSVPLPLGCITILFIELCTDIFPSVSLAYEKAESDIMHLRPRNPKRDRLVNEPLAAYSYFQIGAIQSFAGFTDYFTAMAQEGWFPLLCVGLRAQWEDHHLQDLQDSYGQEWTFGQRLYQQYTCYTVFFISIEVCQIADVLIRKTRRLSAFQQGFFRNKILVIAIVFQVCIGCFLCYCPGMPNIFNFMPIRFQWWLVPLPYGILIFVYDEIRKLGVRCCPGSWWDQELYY
(H+—K+)-ATPase, sequence (P51164 whole entry partner): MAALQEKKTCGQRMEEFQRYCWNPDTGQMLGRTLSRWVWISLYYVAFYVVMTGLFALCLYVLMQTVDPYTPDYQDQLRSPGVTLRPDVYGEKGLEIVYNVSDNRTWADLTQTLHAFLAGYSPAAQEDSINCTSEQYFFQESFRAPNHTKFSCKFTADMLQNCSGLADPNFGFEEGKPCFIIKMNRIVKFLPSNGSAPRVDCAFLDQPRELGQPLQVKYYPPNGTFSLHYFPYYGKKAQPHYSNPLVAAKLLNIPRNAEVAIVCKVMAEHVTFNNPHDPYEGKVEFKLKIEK

Which “antisecretory activity due to the inhibition of (H+—K+)-ATPase” value ((H+—K+)-ATPase) does the source give for `Cc1c(OCC(F)(F)F)ccnc1C[S@@+]([O-])c1nc2ccccc2[nH]1` [Dexlansoprazole, (R)-2-[[[3-methyl-4-(2,2,2-trifluoroethoxy)-2-pyridinyl]methyl]sulfinyl]-1H-benzimidazole] here?
Its value is “antisecretory activity”.

For `Cc1c(OCC(F)(F)F)ccnc1C[S@@+]([O-])c1nc2ccccc2[nH]1` [Example 23, dexlansoprazole], which 2-MB ([1]; At 2-8° C., 1 month) is on record?
Its 2-MB is 0.04 weight percent.

And the “Highest Impurity” value ([1]; At 2-8° C., 1 month)?
The value was 0.07 weight percent.

What about the “RRT 1.98” value ([1]; At 2-8° C., 1 month) of the same molecule?
The value was 0.06 weight percent.

And the Sulfide ([1]; At 2-8° C., 1 month)?
The Sulfide was 0.45 weight percent.

What about the Sulfone ([1]; At 2-8° C., 1 month) of the same molecule?
The Sulfone was 0.57 weight percent.

What about the Total impurities ([1]; At 2-8° C., 1 month) of the same molecule?
Its Total impurities is 1.54 weight percent.

And the Water ([1]; At 2-8° C., 1 month)?
Its Water is 3.54 weight percent.

What about the 2-MB ([1]; At 2-8° C., 2 months) of the same molecule?
The 2-MB was 0.03 weight percent.

And the “Highest Impurity” value ([1]; At 2-8° C., 2 months)?
Its value is 0.07 weight percent.

And the “RRT 1.98” value ([1]; At 2-8° C., 2 months)?
Its value is 0.06 weight percent.

And the Sulfide ([1]; At 2-8° C., 2 months)?
Its Sulfide is 0.50 weight percent.

What about the Sulfone ([1]; At 2-8° C., 2 months) of the same molecule?
The Sulfone was 0.61 weight percent.

And the Total impurities ([1]; At 2-8° C., 2 months)?
Its Total impurities is 1.76 weight percent.

And the Water ([1]; At 2-8° C., 2 months)?
Its Water is 2.61 weight percent.

What about the 2-MB ([1]; At 2-8° C., 3 months) of the same molecule?
Its 2-MB is 0.02 weight percent.

What about the “Highest Impurity” value ([1]; At 2-8° C., 3 months) of the same molecule?
The value was 0.07 weight percent.

What about the “RRT 1.98” value ([1]; At 2-8° C., 3 months) of the same molecule?
The value was 0.06 weight percent.

What about the Sulfide ([1]; At 2-8° C., 3 months) of the same molecule?
The Sulfide was 0.48 weight percent.

And the Sulfone ([1]; At 2-8° C., 3 months)?
Its Sulfone is 0.59 weight percent.

What about the Total impurities ([1]; At 2-8° C., 3 months) of the same molecule?
Its Total impurities is 1.63 weight percent.

And the Water ([1]; At 2-8° C., 3 months)?
Its Water is 2.24 weight percent.

And the 2-MB ([1]; At 2-8° C., Initial)?
Its 2-MB is 0.02 weight percent.

And the “Highest Impurity” value ([1]; At 2-8° C., Initial)?
Its value is 0.07 weight percent.

What about the “RRT 1.98” value ([1]; At 2-8° C., Initial) of the same molecule?
The value was 0.03 weight percent.

What about the Sulfide ([1]; At 2-8° C., Initial) of the same molecule?
The Sulfide was 0.47 weight percent.

And the Sulfone ([1]; At 2-8° C., Initial)?
Its Sulfone is 0.59 weight percent.

What about the Total impurities ([1]; At 2-8° C., Initial) of the same molecule?
The Total impurities was 1.42 weight percent.

And the Water ([1]; At 2-8° C., Initial)?
Its Water is 2.90 weight percent.

And the 2-MB [1, 5]?
The 2-MB was 0.05 weight percent.

What about the “Highest Impurity” value [1, 5] of the same molecule?
The value was 0.09 weight percent.

What about the “RRT 1.98” value [1, 5] of the same molecule?
Its value is 0.14 weight percent.

And the Sulfide [1, 5]?
The Sulfide was 0.47 weight percent.

And the Sulfone [1, 5]?
Its Sulfone is 0.55 weight percent.

And the Total impurities [1, 5]?
Its Total impurities is 1.80 weight percent.

What about the Water [1, 5] of the same molecule?
Its Water is 2.89 weight percent.

What about the 2-MB [1, 6] of the same molecule?
The 2-MB was 0.04 weight percent.

What about the “Highest Impurity” value [1, 6] of the same molecule?
Its value is 0.07 weight percent.

What about the “RRT 1.98” value [1, 6] of the same molecule?
Its value is 0.15 weight percent.

And the Sulfide [1, 6]?
The Sulfide was 0.50 weight percent.

What about the Sulfone [1, 6] of the same molecule?
Its Sulfone is 0.61 weight percent.

What about the Total impurities [1, 6] of the same molecule?
The Total impurities was 1.99 weight percent.

And the Water [1, 6]?
The Water was 1.54 weight percent.

And the 2-MB [1, 7]?
Its 2-MB is 0.04 weight percent.

What about the “Highest Impurity” value [1, 7] of the same molecule?
The value was 0.07 weight percent.

What about the “RRT 1.98” value [1, 7] of the same molecule?
The value was 0.17 weight percent.

And the Sulfide [1, 7]?
Its Sulfide is 0.50 weight percent.

What about the Sulfone [1, 7] of the same molecule?
The Sulfone was 0.61 weight percent.

What about the Total impurities [1, 7] of the same molecule?
The Total impurities was 1.89 weight percent.

And the Water [1, 7]?
The Water was 1.50 weight percent.

What about the 2-MB [1, 8] of the same molecule?
Its 2-MB is 0.03 weight percent.

And the “Highest Impurity” value [1, 8]?
Its value is 0.08 weight percent.

What about the “RRT 1.98” value [1, 8] of the same molecule?
The value was 0.09 weight percent.

What about the Sulfide [1, 8] of the same molecule?
The Sulfide was 0.50 weight percent.

What about the Sulfone [1, 8] of the same molecule?
The Sulfone was 0.61 weight percent.

And the Total impurities [1, 8]?
Its Total impurities is 1.76 weight percent.

And the Water [1, 8]?
The Water was 1.68 weight percent.

And the 2-MB [1, 9]?
Its 2-MB is 0.04 weight percent.

And the “Highest Impurity” value [1, 9]?
The value was 0.06 weight percent.

What about the “RRT 1.98” value [1, 9] of the same molecule?
The value was 0.14 weight percent.

What about the Sulfide [1, 9] of the same molecule?
The Sulfide was 0.52 weight percent.

And the Sulfone [1, 9]?
Its Sulfone is 0.64 weight percent.

And the Total impurities [1, 9]?
The Total impurities was 1.93 weight percent.

What about the Water [1, 9] of the same molecule?
Its Water is 1.29 weight percent.

What about the 2-MB [1, 10] of the same molecule?
The 2-MB was 0.02 weight percent.

What about the “Highest Impurity” value [1, 10] of the same molecule?
The value was 0.07 weight percent.

What about the “RRT 1.98” value [1, 10] of the same molecule?
Its value is 0.03 weight percent.

And the Sulfide [1, 10]?
The Sulfide was 0.47 weight percent.

And the Sulfone [1, 10]?
The Sulfone was 0.59 weight percent.

And the Total impurities [1, 10]?
The Total impurities was 1.42 weight percent.

And the Water [1, 10]?
The Water was 2.90 weight percent.

What about the “Appearance during stability testing” value [1, 11] of the same molecule?
The value was “maintained their initial cream color powder form”.

What about the “Physical form during stability testing” value [1, 11] of the same molecule?
The value was “remained in an amorphous form”.

Which results are given for `Cc1c(OCC(F)(F)F)ccnc1C[S@@+]([O-])c1nc2ccccc2[nH]1` [Example 24, dexlansoprazole]?
Bulk density ([2]; after tapping): 0.65 g/mL; Bulk density ([2]; before tapping): 0.47 g/mL; Particle size distribution d(0.1) [3]: 0.896 μm; Particle size distribution d(0.5) [3]: 5.308 μm; Particle size distribution d(0.9) [3]: 12.938

Which “specific surface area by the BET method” value [4] does the source give for `Cc1c(OCC(F)(F)F)ccnc1C[S@@+]([O-])c1nc2ccccc2[nH]1` [Example 25, dexlansoprazole] here?
Its value is 1.0608 m^2/g.
